The values that follow are results of earlier work, collected in PMC11975549, “Development of Potent Type V MAPK Inhibitors: Design, Synthesis, and Biological Evaluation of Benzothiazole Derivatives Targeting p38α MAPK in Breast Cancer Cells” (Archiv Der Pharmazie, 2025).

In one data set the test system is prostate cancer cells. More on the design: method as in PMID 31838901. The note with it: cited from earlier work.
The next data set has as its system normal prostate cells. More on the design: method as in PMID 31838901. The following applies: cited from earlier work.
Data set [1] deals with p38α MAPK. More on the design: method as in PMID 34894967. The note with it: MCF‐7 cells; cited from earlier work.
The test system of data set [2] is p38α MAPK. Also noted: method as in PMID 34328852. The note with it: HeLa cells, compared with the control anisomycin (30 μM); cited from earlier work.
The test system of the next data set is HeLa cells. Also noted: method as in PMID 34328852. The note with it: cited from earlier work.

Where two headings read alike, the source gives them in different places.

Consider `COc1cccc(CNC(=O)c2ccc(N3CCOCC3)c(NC(=O)Nc3ccc(F)cc3F)c2)c1` [Compound 5e], for which the “viability, proliferation and migration of prostate cancer cells” value in the data set on prostate cancer cells was “inhibited the viability and reduced the proliferation and migration”. Besides, the “damage to normal prostate cells” value in the data set on normal prostate cells is “without causing considerable damage”.

As for `Cc1ccc(C(=O)/C=C/c2ccc(Oc3ccc(Br)cc3)cc2)cc1` [Compound 10j], the “total p38α MAPK and phosphorylated enzyme levels” value in the data set on p38α MAPK [1] is reported as “reduced”.

In the case of `O=c1oc2ccccc2c(O)c1C1=CC(c2ccc(F)cc2)NC(=S)N1` (stereo not drawn) [Compound 7g], the “suppression of p38α MAPK activation” value in the data set on p38α MAPK [2] is recorded as 0.64. Further, the “reduction in cell viability” value in the data set with HeLa cells (10 μM) was 80%; with HeLa cells (30 μM), 72%.
